In PubChem BioAssay AID1259407 (Chemical Carcinogenesis Research Information System (CCRIS), 2018):
Calls of active or inactive are those of the source. No rule for the calls is given here.

System: CCRIS mutagenicity, Ames/micronucleus/aberration tests
Test: CCRIS mutagenicity studies
[1] = Test System: AMES SALMONELLA TYPHIMURIUM, Strain/Indicator: TA98, Metabolic Activation: NONE, Method: STANDARD PLATE
[2] = Test System: AMES SALMONELLA TYPHIMURIUM, Strain/Indicator: TA1537, Metabolic Activation: NONE, Method: STANDARD PLATE
[3] = Test System: AMES SALMONELLA TYPHIMURIUM, Strain/Indicator: TA1538, Metabolic Activation: NONE, Method: STANDARD PLATE
[4] = Test System: AMES SALMONELLA TYPHIMURIUM, Strain/Indicator: TA100, Metabolic Activation: RAT, LIVER, S-9, AROCLOR 1254, Method: STANDARD PLATE
[5] = Test System: AMES SALMONELLA TYPHIMURIUM, Strain/Indicator: TA100, Metabolic Activation: NONE, Method: STANDARD PLATE

`O=[N+]([O-])c1cccc2[nH]c3ccccc3c12` was tested, and the mutagenic call [1] was “active; positive”, the mutagenic call (Test System: AMES SALMONELLA TYPHIMURIUM, Strain/Indicator: TA98, Metabolic Activation: RAT, LIVER, S-9, PHENOBARBITAL, Method: STANDARD PLATE) was “active; positive” and the mutagenic call [2] was “inactive; negative”. The mutagenic call (Test System: AMES SALMONELLA TYPHIMURIUM, Strain/Indicator: TA1537, Metabolic Activation: RAT, LIVER, S-9, PHENOBARBITAL, Method: STANDARD PLATE) was “inactive; negative”, the mutagenic call [3] was “active; positive” and the mutagenic call (Test System: AMES SALMONELLA TYPHIMURIUM, Strain/Indicator: TA1538, Metabolic Activation: RAT, LIVER, S-9, PHENOBARBITAL, Method: STANDARD PLATE) was “active; positive”. For the same molecule, the mutagenic call (Test System: AMES SALMONELLA TYPHIMURIUM, Strain/Indicator: TA1977, Metabolic Activation: NONE, Method: STANDARD PLATE) was “inactive; negative” and the mutagenic call (Test System: AMES SALMONELLA TYPHIMURIUM, Strain/Indicator: TA1977, Metabolic Activation: RAT, LIVER, S-9, PHENOBARBITAL, Method: STANDARD PLATE) was “inactive; negative”.
`C/C=C1\C[C@@H](C)[C@](C)(OC(C)=O)C(=O)OC/C2=C/CN(C)CC[C@@H](OC1=O)C2=O` was tested, and the mutagenic call (Test System: AMES SALMONELLA TYPHIMURIUM, Strain/Indicator: TA100, Metabolic Activation: HAMSTER, LIVER, S-9, PCB, Method: PREINCUBATION) was “inactive; negative; by authors criteria results are positive”, the mutagenic call (Test System: AMES SALMONELLA TYPHIMURIUM, Strain/Indicator: TA100, Metabolic Activation: RAT, LIVER, S-9, PCB, Method: PREINCUBATION) was “active; positive” and the mutagenic call (Test System: UDS RAT HEPATOCYTES, Strain/Indicator: THY INCORP, Metabolic Activation: NONE, Method: AUTORADIOGRAPHY) was “active; positive”.
With `Oc1cccc2c1-c1cc3cccc4ccc5ccc-2c1c5c43` the mutagenic call [4] was “active; positive”.
With `Nc1nc(N)c(-c2ccccc2)s1` the mutagenic call (Test System: MOUSE LYMPHOMA, Strain/Indicator: L5178Y (TK+/TK-), Metabolic Activation: NONE, Method: SUSPENSION/PLATE) was “active; positive. reevaluation of results: inconclusive” and the mutagenic call (Test System: MOUSE LYMPHOMA, Strain/Indicator: L5178Y (TK+/TK-), Metabolic Activation: RAT, LIVER, S-9, AROCLOR 1254, Method: SUSPENSION/PLATE) was “active; positive. reevaluation of results: inconclusive”.
For `c1ccc2[nH]cnc2c1`, the mutagenic call (Test System: AMES SALMONELLA TYPHIMURIUM, Strain/Indicator: TA97, Metabolic Activation: HAMSTER, LIVER, S-9, AROCLOR 1254 (10 OR 30%), Method: PREINCUBATION) was “inactive; negative”, the mutagenic call (Test System: AMES SALMONELLA TYPHIMURIUM, Strain/Indicator: TA97, Metabolic Activation: NONE, Method: PREINCUBATION) was “inactive; negative” and the mutagenic call (Test System: AMES SALMONELLA TYPHIMURIUM, Strain/Indicator: TA97, Metabolic Activation: RAT, LIVER, S-9, AROCLOR 1254 (10 OR 30%), Method: PREINCUBATION) was “inactive; negative”. For the same molecule, the mutagenic call (Test System: AMES SALMONELLA TYPHIMURIUM, Strain/Indicator: TA98, Metabolic Activation: HAMSTER, LIVER, S-9, AROCLOR 1254 (10 OR 30%), Method: PREINCUBATION) was “inactive; negative”, the mutagenic call (Test System: AMES SALMONELLA TYPHIMURIUM, Strain/Indicator: TA98, Metabolic Activation: NONE, Method: PREINCUBATION) was “inactive; negative” and the mutagenic call (Test System: AMES SALMONELLA TYPHIMURIUM, Strain/Indicator: TA98, Metabolic Activation: RAT, LIVER, S-9, AROCLOR 1254 (10 OR 30%), Method: PREINCUBATION) was “inactive; negative”. The mutagenic call (Test System: AMES SALMONELLA TYPHIMURIUM, Strain/Indicator: TA100, Metabolic Activation: HAMSTER, LIVER, S-9, AROCLOR 1254 (10 OR 30%), Method: PREINCUBATION) was “inactive; negative”, the mutagenic call (Test System: AMES SALMONELLA TYPHIMURIUM, Strain/Indicator: TA100, Metabolic Activation: NONE, Method: PREINCUBATION) was “inactive; negative” and the mutagenic call (Test System: AMES SALMONELLA TYPHIMURIUM, Strain/Indicator: TA100, Metabolic Activation: RAT, LIVER, S-9, AROCLOR 1254 (10 OR 30%), Method: PREINCUBATION) was “inactive; negative”. The mutagenic call (Test System: AMES SALMONELLA TYPHIMURIUM, Strain/Indicator: TA1535, Metabolic Activation: HAMSTER, LIVER, S-9, AROCLOR 1254 (10 OR 30%), Method: PREINCUBATION) was “inactive; negative”, the mutagenic call (Test System: AMES SALMONELLA TYPHIMURIUM, Strain/Indicator: TA1535, Metabolic Activation: NONE, Method: PREINCUBATION) was “inactive; negative” and the mutagenic call (Test System: AMES SALMONELLA TYPHIMURIUM, Strain/Indicator: TA1535, Metabolic Activation: RAT, LIVER, S-9, AROCLOR 1254 (10 OR 30%), Method: PREINCUBATION) was “inactive; negative”. The mutagenic call (Test System: AMES SALMONELLA TYPHIMURIUM, Strain/Indicator: TA1537, Metabolic Activation: HAMSTER, LIVER, S-9, AROCLOR 1254 (10 OR 30%), Method: PREINCUBATION) was “inactive; negative”, the mutagenic call (Test System: AMES SALMONELLA TYPHIMURIUM, Strain/Indicator: TA1537, Metabolic Activation: NONE, Method: PREINCUBATION) was “inactive; negative” and the mutagenic call (Test System: AMES SALMONELLA TYPHIMURIUM, Strain/Indicator: TA1537, Metabolic Activation: RAT, LIVER, S-9, AROCLOR 1254 (10 OR 30%), Method: PREINCUBATION) was “inactive; negative”.
With `COC/C(=C/c1ccccc1)OC` the mutagenic call (Test System: AMES SALMONELLA TYPHIMURIUM, Strain/Indicator: TA97, Metabolic Activation: NONE, Method: STANDARD PLATE) was “inactive; negative”, the mutagenic call (Test System: AMES SALMONELLA TYPHIMURIUM, Strain/Indicator: TA97, Metabolic Activation: RAT, LIVER, S-9, AROCLOR 1254, Method: STANDARD PLATE) was “inactive; negative” and the mutagenic call [1] was “inactive; negative”. The mutagenic call (Test System: AMES SALMONELLA TYPHIMURIUM, Strain/Indicator: TA98, Metabolic Activation: RAT, LIVER, S-9, AROCLOR 1254, Method: STANDARD PLATE) was “inactive; negative”, the mutagenic call [5] was “inactive; negative” and the mutagenic call [4] was “inactive; negative”. The mutagenic call (Test System: AMES SALMONELLA TYPHIMURIUM, Strain/Indicator: TA1535, Metabolic Activation: NONE, Method: STANDARD PLATE) was “inactive; negative”, the mutagenic call (Test System: AMES SALMONELLA TYPHIMURIUM, Strain/Indicator: TA1535, Metabolic Activation: RAT, LIVER, S-9, AROCLOR 1254, Method: STANDARD PLATE) was “inactive; negative” and the mutagenic call [2] was “active; positive”. For the same molecule, the mutagenic call (Test System: AMES SALMONELLA TYPHIMURIUM, Strain/Indicator: TA1537, Metabolic Activation: RAT, LIVER, S-9, AROCLOR 1254, Method: STANDARD PLATE) was “inactive; negative”, the mutagenic call [3] was “inactive; negative” and the mutagenic call (Test System: AMES SALMONELLA TYPHIMURIUM, Strain/Indicator: TA1538, Metabolic Activation: RAT, LIVER, S-9, AROCLOR 1254, Method: STANDARD PLATE) was “inactive; negative”.
For `Fc1cccc2ncccc12`, the mutagenic call (End Point: In vitro chromosomal aberrations, Test System: Chinese hamster lung fibroblast cells (CHL/IU), Metabolic Activation: Rat, liver, S-9) was “active; positive, described as marginally clastogenic at non toxic doses. (information d”, the mutagenic call (End Point: In vitro micronucleus, Test System: Chinese hamster lung fibroblast cells (CHL/IU), Metabolic Activation: Rat, liver, S-9) was “active; positive (information derived from a figure)” and the mutagenic call (Test System: AMES SALMONELLA TYPHIMURIUM, Strain/Indicator: TA100, Metabolic Activation: RAT LIVER S-9, PHENOBARBITAL AND 5,6-BENZOFLAVONE, Method: PREINCUBATION) was “active; positive”. For the same molecule, the mutagenic call (Test System: AMES SALMONELLA TYPHIMURIUM, Strain/Indicator: TA100, Metabolic Activation: RAT, LIVER, S-9, AROCLOR 1254, Method: PREINCUBATION) was “active; positive”, the mutagenic call (Test System: AMES SALMONELLA TYPHIMURIUM, Strain/Indicator: TA100, Metabolic Activation: RAT, LIVER, S-9, PHENOBARBITAL AND 5,6-BENZOFLAVONE, Method: PREINCUBATION) was “active; positive” and the mutagenic call (Test System: AMES SALMONELLA TYPHIMURIUM, Strain/Indicator: TA100, Metabolic Activation: RAT, LIVER, S-9, PHENOBARBITAL AND 5,6-NAPHTHOFLAVONE, Method: PREINCUBATION) was “active; positive”. The mutagenic call (Test System: UDS RODENT HEPATOCYTES, Strain/Indicator: THY INCORP (NON-S-PHASE), Metabolic Activation: NONE, Method: AUTORADIOGRAPHY) was “active; positive”.
`COc1ccc([N+](=O)[O-])c2c(NCCCN(C)C)c3ccccc3nc12` was tested, and the mutagenic call [1] was “active; positive” and the mutagenic call [5] was “inactive; negative”.
